“Also recorded” adds a separate entry of the source. Like-named read-outs stand apart in the source and are kept apart here. No end group written: not given here.
Assays:
[1] = tested on: wildtype peptide-pulsed target cells; assay: CTL recognition of wildtype peptide-pulsed targets; format: cell-based, human; conditions: for pulsed EHM target cell line: positive responses/total tested, positive = 10% specific lysis above background or twice background and at least 50 pg IFNg/well in at least one of 48 wells
[2] = tested on: tumor cell lines expressing the TAA; assay: CTL recognition of endogenous targets (tumor cell lines expressing the TAA); format: cell-based, human; conditions: for Tumor target cell line: only wells positive for peptide-pulsed targets
HLA-A*0301 = HLA-A*0301 (Homo sapiens, UniProt P04439); assay: Class I peptide-binding assay, HLA-A*0301
HLA-A*1101 = HLA-A*1101 (Homo sapiens, UniProt P04439, A114D/D185E/E176A/F33Y/L180Q/S129P/T187R); assay: Class I peptide-binding assay, HLA-A*1101
HLA-A*3101 = HLA-A*3101 (Homo sapiens, UniProt P04439, A270S/D185E/E176V/E277Q/F33T/G231S/G80R/H175R/I121M/I218V/I322F/K168Q/L300P/L318F/M331R/P217A/Q94H/R138Q/T323A/T345S/T97I/V358M); assay: Class I peptide-binding assay, HLA-A*3101; conditions: Table 16b, Her2/neu-derived
HLA-A*3301 = HLA-A*3301 (Homo sapiens, UniProt P04439, A270S/D185E/E176V/E277Q/E87N/F33T/G231S/H175R/I121M/I218V/I322F/K168Q/K210R/L300P/L318F/M331R/P217A/Q86R/Q94H/R138Q/T323A/T345S/T97I/V358M/Y195H); assay: Class I peptide-binding assay, HLA-A*3301; conditions: Table 16b, Her2/neu-derived
HLA-A*6801 = HLA-A*6801 (Homo sapiens, UniProt P04439, A269V/D185E/E176V/E277Q/E87N/F33Y/G231S/I121M/I166T/I218V/L180W/L300P/L318F/N151K/P208A/P217A/Q86R/R169H/T345S); assay: Class I peptide-binding assay, HLA-A*6801; conditions: Table 16b, Her2/neu-derived
HLA-B*4002 = HLA-B*4002 (Homo sapiens, UniProt P01889, A65T/A93T/A95T/D138N/D201E/D98Y/E176V/E204Q/E69K/K202T/N87E/Q56L/Q94N/R180L/S48T/Y33H/Y91S); assay: Class I peptide-binding assay, HLA-B*4002 (B44 supertype); conditions: HER2/neu-derived B44 peptides, Table 27; binding to purified HLA-B*4002
HLA-A*0101 = HLA-A*0101 (Homo sapiens, UniProt P04439, A114D/A174V/A182V/D101N/D185E/E176A/E190D/L180R/Q94H/R68K/S129P/T187R/V100A/V91M/W191G); assay: Class I peptide-binding assay, HLA-A*0101
HLA-A*2402 = HLA-A*2402 (Homo sapiens, UniProt P04439, D101N/D140Y/D185E/E176V/E190D/F33S/G103R/G107R/I119L/I121M/I306V/K335N/L105A/L180Q/L300P/N151K/N90K/Q86E/Q94H/R106L/R138H/R89G/T104I/T345S/V100E/W191G/Y123F); assay: Class I peptide-binding assay, HLA-A*2402; conditions: Table 19a, CEA-derived A24 binders
[3] = tested on: peptide-pulsed target cells; conditions: outside investigators; cited from earlier work
[4] = co-emulsified with HPV-derived CTL epitopes; cited from earlier work
[5] = Table 16c, second part, positive/total tested
[6] = 938mel (A3−, Mage2+, Mage3+) and 624mel (A3+, Mage2+, Mage3+)
[7] = Table 16d, second part, positive/total tested
[8] = SW403 (A3+, p53−) and SW403/p53 transfectant (A3+, p53+)
[9] = Table 18a, CEA-derived A1 binders

C[C@@H](O)[C@H](NC(=O)[C@@H](N)CCCCN)C(=O)N[C@@H](Cc1ccc(O)cc1)C(=O)N[C@@H](CCC(N)=O)C(=O)NCC(=O)N[C@@H](CO)C(=O)N[C@@H](Cc1ccc(O)cc1)C(=O)NCC(=O)N[C@@H](Cc1ccccc1)C(=O)N[C@@H](CCCCN)C(=O)O
Immunogenicity Wildtype ([1]; Table 20): 0/1 | Immunogenicity Tumor ([2]; Table 20): 0/1

CC[C@H](C)[C@H](NC(=O)[C@@H](N)[C@@H](C)O)C(=O)N[C@@H](CO)C(=O)N1CCC[C@H]1C(=O)N[C@@H](CC(C)C)C(=O)N[C@@H](CC(N)=O)C(=O)N[C@H](C(=O)N[C@@H](CO)C(=O)N[C@@H](Cc1ccc(O)cc1)C(=O)N[C@@H](CCCCN)C(=O)O)[C@@H](C)O
Immunogenicity Wildtype ([1]; Table 20): 2/3

CC[C@H](C)[C@H](NC(=O)CNC(=O)[C@H](Cc1ccccc1)NC(=O)[C@@H](NC(=O)[C@@H](N)C(C)C)C(C)C)C(=O)N[C@@H](CC(C)C)C(=O)N[C@H](C(=O)N[C@@H](CCCCN)C(=O)N[C@@H](CCCNC(=N)N)C(=O)O)[C@@H](C)CC
Immunogenicity Tumor ([2]; Table 20): 0/1

CC[C@H](NC(=O)[C@H](CCCNC(=N)N)NC(=O)[C@H](CCCNC(=N)N)NC(=O)[C@@H](NC(=O)[C@@H](N)C(C)C)C(C)C)C(=O)N1CCC[C@H]1C(=O)N[C@@H](Cc1c[nH]cn1)C(=O)N[C@@H](Cc1c[nH]cn1)C(=O)N[C@@H](CCC(=O)O)C(=O)N[C@@H](CCCCN)C(=O)O [VVRRBPHHEK]
Immunogenicity Wildtype ([1]; Table 20): 1/2 | Immunogenicity Tumor ([2]; Table 20): 1/2

CC[C@H](C)[C@H](NC(=O)CNC(=O)[C@H](Cc1ccccc1)NC(=O)[C@@H](NC(=O)[C@@H](N)C(C)C)C(C)C)C(=O)N[C@@H](CC(C)C)C(=O)N[C@H](C(=O)N[C@@H](CCCCN)C(=O)N[C@@H](CCCNC(=N)N)C(=O)O)[C@@H](C)CC [compound 57]
Number of CTL inductions yielding positive responses/total tested, Wildtype-pulsed EHM target cell line ([1]; positive = 10% specific lysis above background (51Cr release) or twice background and at least 50 pg IFNγ/well in at least one of 48 wells): 1/3

CC[C@H](C)[C@H](NC(=O)CNC(=O)[C@H](Cc1ccccc1)NC(=O)[C@@H](NC(=O)[C@@H](N)C(C)C)C(C)C)C(=O)N[C@@H](CC(C)C)C(=O)N[C@H](C(=O)N[C@@H](CCCCN)C(=O)N[C@@H](CCCNC(=N)N)C(=O)N[C@@H](CCCNC(=N)N)C(=O)O)[C@@H](C)CC [compound 58]
IC50 (HLA-A*0301; Table 16b, Her2/neu-derived): 3670 nM | IC50 (HLA-A*1101; Table 16b, Her2/neu-derived): 375 nM | IC50 (HLA-A*3101): 290 nM | IC50 (HLA-A*3301): 193 nM | IC50 (HLA-A*6801): 15 nM

CC[C@H](C)[C@H](NC(=O)[C@@H](NC(=O)[C@@H](NC(=O)[C@H](CO)NC(=O)[C@@H](N)Cc1ccccc1)[C@@H](C)O)[C@@H](C)O)C(=O)N[C@@H](CC(N)=O)C(=O)N[C@@H](Cc1ccc(O)cc1)C(=O)N[C@H](C(=O)N[C@@H](CC(C)C)C(=O)N[C@@H](Cc1c[nH]c2ccccc12)C(=O)N[C@@H](CCCNC(=N)N)C(=O)O)[C@@H](C)O [compound 80]
Immunogenicity Wildtype [1, 5]: 0/2

CC[C@H](C)[C@H](NC(=O)[C@@H](NC(=O)[C@@H](N)[C@@H](C)O)[C@@H](C)O)C(=O)N[C@@H](CC(N)=O)C(=O)N[C@@H](Cc1ccc(O)cc1)C(=O)N[C@H](C(=O)N[C@@H](CC(C)C)C(=O)N[C@@H](Cc1c[nH]c2ccccc12)C(=O)N[C@@H](CCCNC(=N)N)C(=O)O)[C@@H](C)O [compound 82]
pulsed EHM target cell line [1]: 7/7 | Tumor target cell line [2, 6]: 2/5

CC(C)C[C@H](NC(=O)[C@H](CC(C)C)NC(=O)[C@H](CC(C)C)NC(=O)[C@H](Cc1ccccc1)NC(=O)[C@H](Cc1c[nH]cn1)NC(=O)[C@@H](NC(=O)[C@@H](N)CC(C)C)C(C)C)C(=O)N[C@@H](CCCCN)C(=O)N[C@@H](CCCCN)C(=O)O [compound 87]
Tumor target cell line [2, 6]: 0/1 | Immunogenicity Tumor [2, 5]: 0/1

C[C@@H](O)[C@H](NC(=O)[C@@H](N)CCCCN)C(=O)N[C@@H](Cc1ccc(O)cc1)C(=O)N[C@@H](CCC(N)=O)C(=O)NCC(=O)N[C@@H](CO)C(=O)N[C@@H](Cc1ccc(O)cc1)C(=O)NCC(=O)N[C@@H](Cc1ccccc1)C(=O)N[C@@H](CCCCN)C(=O)O [compound 104]
Immunogenicity Wildtype [1, 7]: 0/1 | pulsed EHM target cell line [1]: 0/1 | Tumor target cell line [2, 8]: 0/1 | Immunogenicity Tumor [2, 7]: 0/1

CC(C)C[C@H](NC(=O)[C@H](C)NC(=O)[C@@H]1CCCN1C(=O)[C@H](CO)NC(=O)[C@H](Cc1ccc(O)cc1)NC(=O)[C@@H](NC(=O)[C@@H](N)CS)[C@@H](C)O)C(=O)N[C@@H](CC(N)=O)C(=O)N[C@@H](CCCCN)C(=O)O [compound 107]
pulsed EHM target cell line [1]: 0/1

CC[C@H](C)[C@H](NC(=O)[C@H](C)NC(=O)[C@H](CCSC)NC(=O)[C@H](C)NC(=O)[C@H](CCCNC(=N)N)NC(=O)[C@@H](NC(=O)[C@H](CCCNC(=N)N)NC(=O)[C@@H](NC(=O)CN)[C@@H](C)O)C(C)C)C(=O)N[C@@H](Cc1ccc(O)cc1)C(=O)N[C@@H](CCCCN)C(=O)O [compound 111]
pulsed EHM target cell line [1]: 0/1

CC[C@H](NC(=O)[C@H](CCCNC(=N)N)NC(=O)[C@H](CCCNC(=N)N)NC(=O)[C@@H](NC(=O)[C@@H](N)C(C)C)C(C)C)C(=O)N1CCC[C@H]1C(=O)N[C@@H](Cc1c[nH]cn1)C(=O)N[C@@H](Cc1c[nH]cn1)C(=O)N[C@@H](CCC(=O)O)C(=O)N[C@@H](CCCCN)C(=O)O [compound 116]
Immunogenicity Wildtype [1, 7]: 1/2 | pulsed EHM target cell line [1]: 1/2 | Tumor target cell line [2, 8]: 1/2 | Immunogenicity Tumor [2, 7]: 1/2

CC(C)[C@H](NC(=O)[C@@H](N)CCCNC(=N)N)C(=O)N[C@@H](CS)C(=O)N[C@@H](C)C(=O)N[C@@H](CS)C(=O)N1CCC[C@H]1C(=O)NCC(=O)N[C@@H](CCCNC(=N)N)C(=O)O [compound 124]
pulsed EHM target cell line [1]: 0/1

CSCC[C@H](NC(=O)[C@H](CC(C)C)NC(=O)[C@H](CCCCN)NC(=O)[C@H](CCCCN)NC(=O)[C@H](Cc1c[nH]cn1)NC(=O)[C@H](CCCNC(=N)N)NC(=O)[C@H](CO)NC(=O)[C@@H](NC(=O)[C@@H](N)CO)[C@@H](C)O)C(=O)N[C@@H](Cc1ccccc1)C(=O)N[C@@H](CCCCN)C(=O)O [compound 126]
pulsed EHM target cell line [1]: 1/2

CC[C@H](C)[C@H](NC(=O)[C@@H](NC(=O)[C@H](CS)NC(=O)[C@@H](NC(=O)[C@@H]1CCCN1C(=O)[C@@H]1CCCN1C(=O)[C@H](CCC(N)=O)NC(=O)[C@@H]1CCCN1C(=O)[C@H](CC(C)C)NC(=O)[C@H](CCCNC(=N)N)NC(=O)[C@H](CCC(=O)O)NC(=O)CN)[C@@H](C)CC)[C@@H](C)O)C(=O)O [compound 493]
IC50 (HLA-B*4002): 9.5 nM

H-HSDSNFSPQY-OH
IC50 (HLA-A*0101; [9]): 45 nM

H-ITEKNSCLY-OH
IC50 (HLA-A*0101; [9]): 641 nM

H-LTDNNSGSY-OH
IC50 (HLA-A*0101; [9]): 96 nM

H-LTQEFVQENY-OH
IC50 (HLA-A*0101; Table 18c, Mage2/3-derived A1 binders): 96 nM

H-LWWYNGQSL-OH
IC50 (HLA-A*2402): 1460 nM

MAGE3.189: MAGE3-derived A3 supertype wildtype peptide (Table 16c) (LLGDNQIMPK)
CTL induction / antigenicity reported in the literature (in words) [3]: antigenic

MAGE3.196 9-mer: MAGE3-derived B7 motif wildtype 9-mer
CTL induction / antigenicity reported in the literature (in words) [3]: antigenicity

SSCMGGMNR [compound 117]
IC50 (HLA-A*0301; Table 16d, p53-derived): 550 nM | IC50 (HLA-A*1101; Table 16d, p53-derived): 4.3 nM

aKXVAAWTLKAAa-NH2 [PADRE®, a=D-alanine, X=cyclohexylalanine]
safety in the trial (in words) [4]: favorable safety profile

p53.172B5K10: p53-derived A3 supertype analog, B at position 5 and K at position 10
CTL recognition of wildtype peptide-pulsed targets (in words) [1]: recognize analog and wildtype peptide-pulsed targets; also recorded: recognize both the wildtype sequence; also recorded: lyse wildtype-peptide coated targets | CTL recognition of tumor / endogenous targets (in words) [2]: transfected tumor target cells; also recorded: p53 transfected tumor targets | CTL recognition of tumor / endogenous targets (in words) ([2]; listed as p53.172.B5KIO): induce tumor-reactive CTLs
